Columns and labels:
OVCAR-4 (Ovarian Cancer) = test: NCI DTP tumor cell line screen (SRB), OVCAR-4
Method: (§1) For a typical screening experiment, cells are inoculated into 96 well microtiter plates in 100 μL at plating densities ranging from 5,000 to 40,000 cells/well depending on the doubling time of individual cell lines. After cell inoculation, the microtiter plates are incubated at 37° C., 5% CO2, 95% air and 100% relative humidity for 24 h prior to addition of experimental drugs.
(§2) After 24 h, two plates of each cell line are fixed in situ with TCA, to represent a measurement of the cell population for each cell line at the time of drug addition (Tz). Experimental drugs are solubilized in dimethyl sulfoxide at 400-fold the desired final maximum test concentration and stored frozen prior to use. At the time of drug addition, an aliquot of frozen concentrate is thawed and diluted to twice the desired final maximum test concentration with complete medium containing 50 μg/ml gentamicin. Additional four, 10-fold or ½ log serial dilutions are made to provide a total of five drug concentrations plus control. Aliquots of 100 μl of these different drug dilutions are added to the appropriate microtiter wells already containing 100 μl of medium, resulting in the required final drug concentrations.
(§3) Following drug addition, the plates are incubated for an additional 48 h at 37° C., 5% CO2, 95% air, and 100% relative humidity. For adherent cells, the assay is terminated by the addition of cold TCA. Cells are fixed in situ by the gentle addition of 50 μl of cold 50% (w/v) TCA (final concentration, 10% TCA) and incubated for 60 minutes at 4° C. The supernatant is discarded, and the plates are washed five times with tap water and air dried. Sulforhodamine B (SRB) solution (1001) at 0.4% (w/v) in 1% acetic acid is added to each well, and plates are incubated for 10 minutes at room temperature. After staining, unbound dye is removed by washing five times with 1% acetic acid and the plates are air dried. Bound stain is subsequently solubilized with 10 mM trizma base, and the absorbance is read on an automated plate reader at a wavelength of 515 nm. For suspension cells, the methodology is the same except that the assay is terminated by fixing settled cells at the bottom of the wells by gently adding 50 μl of 80% TCA (final concentration, 16% TCA). Using the seven absorbance measurements [time zero, (Tz), control growth, (C), and test growth in the presence of drug at the five concentration levels (Ti)], the percentage growth is calculated at each of the drug concentrations levels. Percentage growth inhibition is calculated as: [(Ti−Tz)/(C−Tz)]×100 for concentrations for which Ti>/=Tz [(Ti−Tz)/Tz]×100 for concentrations for which Ti<Tz
(§4) Three dose response parameters are calculated for each experimental agent. […] The drug concentration resulting in total growth inhibition (TGI) is calculated from Ti=Tz. […] Values are calculated for each of these three parameters if the level of activity is reached; however, if the effect is not reached or is exceeded, the value for that parameter is expressed as greater or less than the maximum or minimum concentration tested.

SW-620 (Colon Cancer) = test: NCI DTP tumor cell line screen (SRB), SW-620
Method: as §1, §2, §3, §4

UACC-62 (Melanoma) = test: NCI DTP tumor cell line screen (SRB), UACC-62
Method: as §1, §2, §3, §4

LOX IMVI (Melanoma) = test: NCI DTP tumor cell line screen (SRB), LOX IMVI
Method: as §1, §2, §3, §4

RPMI-8226 (Leukemia) = test: NCI DTP tumor cell line screen (SRB), RPMI-8226
Method: as §1, §2, §3, §4

UO-31 (Renal Cancer) = test: NCI DTP tumor cell line screen (SRB), UO-31
Method: as §1, §2, §3, §4

PC-3 (Prostate Cancer) = test: NCI DTP tumor cell line screen (SRB), PC-3
Method: as §1, §2, §3, §4

CCRF-CEM (Leukemia) = test: NCI DTP tumor cell line screen (SRB), CCRF-CEM
Method: as §1, §2, §3, §4

Structure (SMILES): NCC(=O)Nc1ccc(-n2nc(C(F)(F)F)cc2-c2ccc3c(ccc4ccccc43)c2)cc1 [Compound 70, 2-Amino-N-{4-[5-(2-phenanthrenyl)-3-(trifluoromethyl)-1H-pyrazol-1-yl]-phenyl}-acetamide]
- TGI (OVCAR-4 (Ovarian Cancer)): 3.41E−06
- Mean Optical Densities (OVCAR-4 (Ovarian Cancer); Log10 Concentration −4.0): 0.172
- Mean Optical Densities (OVCAR-4 (Ovarian Cancer); Log10 Concentration −5.0): 0.093
- Percent Growth (OVCAR-4 (Ovarian Cancer); Log10 Concentration −5.0): −82%
- Mean Optical Densities (OVCAR-4 (Ovarian Cancer); Log10 Concentration −6.0): 1.086
- Percent Growth (OVCAR-4 (Ovarian Cancer); Log10 Concentration −6.0): 94%
- Mean Optical Densities (OVCAR-4 (Ovarian Cancer); Log10 Concentration −7.0): 1.073
- Percent Growth (OVCAR-4 (Ovarian Cancer); Log10 Concentration −7.0): 92%
- Mean Optical Densities (OVCAR-4 (Ovarian Cancer); Log10 Concentration −8.0): 1.114
- Percent Growth (OVCAR-4 (Ovarian Cancer); Log10 Concentration −8.0): 99%
- TGI (SW-620 (Colon Cancer)): 4.23E−06
- Mean Optical Densities (SW-620 (Colon Cancer); Log10 Concentration −4.0): 0.136
- Mean Optical Densities (SW-620 (Colon Cancer); Log10 Concentration −5.0): 0.127
- Percent Growth (SW-620 (Colon Cancer); Log10 Concentration −5.0): −32%
- Mean Optical Densities (SW-620 (Colon Cancer); Log10 Concentration −6.0): 0.736
- Percent Growth (SW-620 (Colon Cancer); Log10 Concentration −6.0): 54%
- Mean Optical Densities (SW-620 (Colon Cancer); Log10 Concentration −7.0): 1.198
- Percent Growth (SW-620 (Colon Cancer); Log10 Concentration −7.0): 100%
- Mean Optical Densities (SW-620 (Colon Cancer); Log10 Concentration −8.0): 1.197
- Percent Growth (SW-620 (Colon Cancer); Log10 Concentration −8.0): 100%
- TGI (UACC-62 (Melanoma)): 3.15E−06
- Mean Optical Densities (UACC-62 (Melanoma); Log10 Concentration −4.0): 0.364
- Mean Optical Densities (UACC-62 (Melanoma); Log10 Concentration −5.0): 0.137
- Percent Growth (UACC-62 (Melanoma); Log10 Concentration −5.0): −80%
- Mean Optical Densities (UACC-62 (Melanoma); Log10 Concentration −6.0): 1.407
- Percent Growth (UACC-62 (Melanoma); Log10 Concentration −6.0): 79%
- Mean Optical Densities (UACC-62 (Melanoma); Log10 Concentration −7.0): 1.546
- Percent Growth (UACC-62 (Melanoma); Log10 Concentration −7.0): 94%
- Mean Optical Densities (UACC-62 (Melanoma); Log10 Concentration −8.0): 1.649
- Percent Growth (UACC-62 (Melanoma); Log10 Concentration −8.0): 105%
- TGI (LOX IMVI (Melanoma)): 3.07E−06
- Mean Optical Densities (LOX IMVI (Melanoma); Log10 Concentration −4.0): 0.352
- Mean Optical Densities (LOX IMVI (Melanoma); Log10 Concentration −5.0): 0.176
- Percent Growth (LOX IMVI (Melanoma); Log10 Concentration −5.0): −50%
- Mean Optical Densities (LOX IMVI (Melanoma); Log10 Concentration −6.0): 0.742
- Percent Growth (LOX IMVI (Melanoma); Log10 Concentration −6.0): 48%
- Mean Optical Densities (LOX IMVI (Melanoma); Log10 Concentration −7.0): 0.974
- Percent Growth (LOX IMVI (Melanoma); Log10 Concentration −7.0): 76%
- Mean Optical Densities (LOX IMVI (Melanoma); Log10 Concentration −8.0): 1.204
- Percent Growth (LOX IMVI (Melanoma); Log10 Concentration −8.0): 105%
- TGI (RPMI-8226 (Leukemia)): 2.84E−06
- Mean Optical Densities (RPMI-8226 (Leukemia); Log10 Concentration −4.0): 0.229
- Mean Optical Densities (RPMI-8226 (Leukemia); Log10 Concentration −5.0): 0.164
- Percent Growth (RPMI-8226 (Leukemia); Log10 Concentration −5.0): −51%
- Mean Optical Densities (RPMI-8226 (Leukemia); Log10 Concentration −6.0): 0.547
- Percent Growth (RPMI-8226 (Leukemia); Log10 Concentration −6.0): 42%
- Mean Optical Densities (RPMI-8226 (Leukemia); Log10 Concentration −7.0): 0.701
- Percent Growth (RPMI-8226 (Leukemia); Log10 Concentration −7.0): 72%
- Mean Optical Densities (RPMI-8226 (Leukemia); Log10 Concentration −8.0): 0.766
- Percent Growth (RPMI-8226 (Leukemia); Log10 Concentration −8.0): 85%
- TGI (UO-31 (Renal Cancer)): 3.29E−06
- Mean Optical Densities (UO-31 (Renal Cancer); Log10 Concentration −4.0): 0.285
- Mean Optical Densities (UO-31 (Renal Cancer); Log10 Concentration −5.0): 0.161
- Percent Growth (UO-31 (Renal Cancer); Log10 Concentration −5.0): −64%
- Mean Optical Densities (UO-31 (Renal Cancer); Log10 Concentration −6.0): 1.356
- Percent Growth (UO-31 (Renal Cancer); Log10 Concentration −6.0): 68%
- Mean Optical Densities (UO-31 (Renal Cancer); Log10 Concentration −7.0): 1.563
- Percent Growth (UO-31 (Renal Cancer); Log10 Concentration −7.0): 84%
- Mean Optical Densities (UO-31 (Renal Cancer); Log10 Concentration −8.0): 1.572
- Percent Growth (UO-31 (Renal Cancer); Log10 Concentration −8.0): 84%
- TGI (PC-3 (Prostate Cancer)): 2.38E−06
- Mean Optical Densities (PC-3 (Prostate Cancer); Log10 Concentration −4.0): 0.108
- Mean Optical Densities (PC-3 (Prostate Cancer); Log10 Concentration −5.0): 0.055
- Percent Growth (PC-3 (Prostate Cancer); Log10 Concentration −5.0): −77%
- Mean Optical Densities (PC-3 (Prostate Cancer); Log10 Concentration −6.0): 0.593
- Percent Growth (PC-3 (Prostate Cancer); Log10 Concentration −6.0): 47%
- Mean Optical Densities (PC-3 (Prostate Cancer); Log10 Concentration −7.0): 0.763
- Percent Growth (PC-3 (Prostate Cancer); Log10 Concentration −7.0): 69%
- Mean Optical Densities (PC-3 (Prostate Cancer); Log10 Concentration −8.0): 0.910
- Percent Growth (PC-3 (Prostate Cancer); Log10 Concentration −8.0): 89%
- TGI (CCRF-CEM (Leukemia)): 2.49E−06
- Mean Optical Densities (CCRF-CEM (Leukemia); Log10 Concentration −4.0): 0.194
- Mean Optical Densities (CCRF-CEM (Leukemia); Log10 Concentration −5.0): 0.168
- Percent Growth (CCRF-CEM (Leukemia); Log10 Concentration −5.0): −43%

Reference: patent US8741944B2, “Anti-infective agents against intracellular pathogens” (priority 2007, dated 2014)
